Values belong to the molecule of their own block, whether it stands above or below them. Starred links: 1 amine or outer side, 2 acyl side, 3 side chain; linkers in the order of their positions; H or OH if unused. Positions of bridges follow the written chain, without caps; N, C: chain ends. Non-standard residues stand in square brackets, D forms with d. Residues, ends and D or L forms follow the SMILES beside them. Groups on a side chain read outwards from the residue. Primed or numbered codes have the meaning given here. *: point of attachment. Ala(1-CH2CO2H-4-piperidyl) = N[C@@H](CC1CCN(CC(=O)O)CC1)C(=O)O; Ala(piperidin-4-yl) = O=C([C@H](CC1CCN([*:3])CC1)N[*:1])[*:2]; DOTA = O=C(O)CN1CCN(CC(=O)O)CCN(CC(=O)*)CCN(CC(=O)O)CC1; PipAla = piperidinyl-alanine residue (as named); Phe(4-COOH) = N[C@@H](Cc1ccc(C(=O)O)cc1)C(=O)O; Trp(5-F) = N[C@@H](Cc1c[nH]c2ccc(F)cc12)C(=O)O; X1 = C[C@@H](c1ccccc1)[C@H](N[*:1])C(=O)[*:2]; PEG4′ = 4x 3-(2-aminoethoxy)propanoic acid; γGlu = O=C(O)[C@H](CCC(=O)[*:2])N[*:1]; 1Nal = N[C@@H](Cc1cccc2ccccc12)C(=O)O; Ala(4-THP) = N[C@@H](CC1CCOCC1)C(=O)O; Val(3-OH) = CC(C)(O)[C@H](N)C(=O)O; hCha = N[C@@H](CCC1CCCCC1)C(=O)O; 4Pal = N[C@@H](Cc1ccncc1)C(=O)O; PEG4 = NCCOCCOCCOCCOCCC(=O)O; Tle = CC(C)(C)[C@H](N)C(=O)O; hLeu = CC(C)CC[C@H](N)C(=O)O; Nle = CCCC[C@H](N)C(=O)O; PEG8′ = not defined here
Legend:
2Ig B7-H3 = biological target: T1, 2Ig B7-H3 (Homo sapiens, UniProt Q5ZPR3); experiment: SPR binding affinity to 2Ig B7-H3
T1 sequence (Q5ZPR3 29-316 isoform Q5ZPR3-2 limits assumed): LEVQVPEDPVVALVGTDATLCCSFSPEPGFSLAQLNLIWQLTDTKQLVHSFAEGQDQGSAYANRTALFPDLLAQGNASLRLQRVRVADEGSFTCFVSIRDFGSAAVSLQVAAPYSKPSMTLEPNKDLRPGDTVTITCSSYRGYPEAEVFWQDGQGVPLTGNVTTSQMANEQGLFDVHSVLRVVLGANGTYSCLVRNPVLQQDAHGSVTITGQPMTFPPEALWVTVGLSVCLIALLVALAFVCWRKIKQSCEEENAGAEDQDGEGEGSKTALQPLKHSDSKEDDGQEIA

Calu-6 cell line [1] = experiment: Cell associated (bound) fraction of [177Lu]Lu-labeled peptide in Calu-6 cells; assay type: cell-based, Human; details: 1 hour, 37° C.
Summary of the method: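 Detached B7-H3-expressing human lung cancer cells at 5 million/mL were exposed for 1 hour at 37 °C to 0.8 μCi of the 177Lu-labelled peptide, which was formulated in 1% PBSA after labelling at 80 °C, pH ~5. Supernatant and two cold washes counted as unbound, and resuspended cells gamma-counted as the cell-associated fraction.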

Calu-6 cell line [2] = experiment: Net internalization of [177Lu]Lu-labeled peptide in Calu-6 cells; assay type: cell-based, Human; details: 1 hour, 37° C., glycine pH 2.5 acid wash
Summary of the method: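 Calu-6 cells, human non-engineered lung cancer expressing B7-H3, resuspended in 1% PBSA at 5 million cells/mL and incubated with the 177Lu-labeled conjugate (labeled at 80 °C, pH ~5, RP-HPLC checked). Gamma counting of the bound fraction, then of the pellet after two glycine pH 2.5 acid strips and NaOH lysis, gives internalized activity.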

human 4lg B7-H3 = biological target: T2, human 4lg B7-H3 (Homo sapiens, UniProt Q5ZPR3); experiment: Affinity determination by surface plasmon resonance (SPR) to 4Ig B7-H3
T2 sequence (Q5ZPR3 29-534): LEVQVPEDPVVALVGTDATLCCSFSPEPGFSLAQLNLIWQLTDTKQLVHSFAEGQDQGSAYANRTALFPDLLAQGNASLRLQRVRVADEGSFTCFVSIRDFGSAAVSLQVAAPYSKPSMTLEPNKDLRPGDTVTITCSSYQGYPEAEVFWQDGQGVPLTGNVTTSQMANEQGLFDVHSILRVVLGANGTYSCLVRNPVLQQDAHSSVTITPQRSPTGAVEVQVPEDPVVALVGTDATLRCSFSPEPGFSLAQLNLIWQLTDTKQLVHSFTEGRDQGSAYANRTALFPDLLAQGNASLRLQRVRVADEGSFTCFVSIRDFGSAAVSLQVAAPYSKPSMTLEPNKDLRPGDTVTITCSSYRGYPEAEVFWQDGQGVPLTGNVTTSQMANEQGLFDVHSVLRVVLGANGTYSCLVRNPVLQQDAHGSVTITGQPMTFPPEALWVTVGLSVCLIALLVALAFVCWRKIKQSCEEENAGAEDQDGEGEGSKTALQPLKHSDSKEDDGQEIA

Calu-6 tumors = experiment: Ex vivo biodistribution of radiolabeled peptides in nude mice bearing Calu-6 tumors; details: [177Lu]Lu labeling, 24 h post-injection
Description: Mice were euthanized at pre-determined time points and selected tissues were resected and collected into pre-weighed tubes. The tubes were then reweighed post resection, the difference giving the weight of each tissue. Radioactivity in each tissue was measured using a gamma counter. Counts were decay corrected to the time of injection and percentage of injected activity per gram (% IA/g) was calculated for each tissue based on the injected activity into each individual mouse. Injected activity was converted to counts based on the sensitivity of the gamma counter. The counts in tissue were then converted to the percentage of injected activity and this was divided by the mass of tissue to give % IA/g.

[3] = biological target: T3, Biotinylated human 4Ig B7-H3 (human, UniProt Q5ZPR3 29-461, limits assumed, biotinylated (site not stated)); experiment: SPR 37C; C = 10<KD<=100 nM
T3 construct: Protein captured on the SA chip for SPR; also called 4lg-B7-H3; B7-H3 isoform 4Ig
T3 sequence: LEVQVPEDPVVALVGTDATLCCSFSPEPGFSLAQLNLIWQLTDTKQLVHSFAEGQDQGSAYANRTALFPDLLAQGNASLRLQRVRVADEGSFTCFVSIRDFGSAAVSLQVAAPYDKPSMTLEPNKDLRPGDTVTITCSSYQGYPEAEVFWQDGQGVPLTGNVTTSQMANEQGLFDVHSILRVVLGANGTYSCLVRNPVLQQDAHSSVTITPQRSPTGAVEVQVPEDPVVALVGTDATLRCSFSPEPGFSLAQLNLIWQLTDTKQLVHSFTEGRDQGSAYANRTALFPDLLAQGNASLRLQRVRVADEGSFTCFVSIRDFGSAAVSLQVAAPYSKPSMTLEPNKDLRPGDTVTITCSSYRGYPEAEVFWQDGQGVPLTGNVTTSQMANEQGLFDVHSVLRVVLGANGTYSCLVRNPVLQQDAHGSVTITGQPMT

B7-H3 on Calu-6 cells = biological target: T4, B7-H3 on Calu-6 cells (human, UniProt Q5ZPR3 29-534); experiment: 177Lu-labelled peptide on Calu-6 cells, % cell associated fraction; B = 25<%<=50
T4 construct: whole, on cells
T4 sequence (looked up): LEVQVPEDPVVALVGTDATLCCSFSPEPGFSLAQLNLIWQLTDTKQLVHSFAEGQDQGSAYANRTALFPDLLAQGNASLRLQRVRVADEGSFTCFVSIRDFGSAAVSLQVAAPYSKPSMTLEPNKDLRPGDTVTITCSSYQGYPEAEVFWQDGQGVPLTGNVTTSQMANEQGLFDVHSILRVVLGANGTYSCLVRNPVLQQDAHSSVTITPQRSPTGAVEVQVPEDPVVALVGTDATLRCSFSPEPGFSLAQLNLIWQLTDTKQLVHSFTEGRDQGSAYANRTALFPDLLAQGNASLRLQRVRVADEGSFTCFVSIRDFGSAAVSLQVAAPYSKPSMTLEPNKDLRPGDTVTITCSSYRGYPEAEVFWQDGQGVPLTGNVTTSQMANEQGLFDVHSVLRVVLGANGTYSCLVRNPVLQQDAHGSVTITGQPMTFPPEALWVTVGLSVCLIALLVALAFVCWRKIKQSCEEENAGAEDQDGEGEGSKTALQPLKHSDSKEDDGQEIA

[4] = biological target: Biotinylated human 4Ig B7-H3 (human) (UniProt Q5ZPR3); experiment: SPR 37C; A = KD<=1.0 nM

Molecule: CC(=O)N[C@@H](CCC(C)C)C(=O)N[C@@H](Cc1ccc(O)cc1)C(=O)N[C@H]1CSSC[C@@H](C(=O)N[C@@H](Cc2c[nH]c3ccc(F)cc23)C(=O)N[C@H](C(=O)N[C@H](C(=O)N[C@H](CCC(=O)O)C(N)=O)C(C)(C)O)[C@@H](C)c2ccccc2)NC(=O)[C@H](Cc2ccc(O)cc2)NC(=O)[C@H](C(C)C)NC(=O)[C@H](CC(=O)O)NC(=O)[C@H](CC2CCN(C(=O)CCOCCOCCOCCOCCNC(=O)CN3CCN(CC(=O)O)CCN(CC(=O)O)CCN(CC(=O)O)CC3)CC2)NC(=O)[C@H](CC2CCN(CC(=O)O)CC2)NC(=O)CNC(=O)[C@H](C(C)(C)C)NC1=O [compound 496, Ac-hLeu-Y-C-Tbg-G-Pip(CH2COOH)Ala-Pip(PEG4-DOTA)Ala-D-V-Y-C-5FW-[(2S, 3S)beta-Me-Phe]-hydroxyVal-dGlu-CONH2] (Ac-[hLeu]YC[Tle]G[Ala(1-CH2CO2H-4-piperidyl)][Ala(piperidin-4-yl)]([PEG4-DOTA])DVYC[Trp(5-F)][X1][Val(3-OH)][dE]-NH2; disulfide 3-11)
Kd (2Ig B7-H3): 526 nM
% cell associated fraction (Calu-6 cell line [1]): B (25<%≤50)
% net internalization (Calu-6 cell line [2]): A (%≤25)
Kd (human 4lg B7-H3): < 1 nM
kidney uptake (% IA/g) (Calu-6 tumors): C (0 < % IA/g ≤ 10 in kidney)
tumor uptake (% IA/g) (Calu-6 tumors): A (0 < % IA/g ≤ 5 in tumor)

Molecule: CC(=O)N[C@@H](CCC(C)C)C(=O)N[C@@H](Cc1ccc(O)cc1)C(=O)N[C@H]1CSSC[C@@H](C(=O)N[C@@H](Cc2c[nH]c3ccc(F)cc23)C(=O)N[C@H](C(=O)N[C@H](C(=O)N[C@H](C)C(=O)O)C(C)(C)O)[C@@H](C)c2ccccc2)NC(=O)[C@H](Cc2ccc(O)cc2)NC(=O)[C@H](C(C)C)NC(=O)[C@H](CC(=O)O)NC(=O)[C@H](CC2CCN(C(=O)CCOCCOCCOCCOCCNC(=O)CN3CCN(CC(=O)O)CCN(CC(=O)O)CCN(CC(=O)O)CC3)CC2)NC(=O)[C@H](CC2CCN(CC(=O)O)CC2)NC(=O)CNC(=O)[C@H](C(C)(C)C)NC1=O [compound 526, Ac-hLeu-Y-C-Tbg-G-Pip(CH2COOH)Ala-Pip(PEG4-DOTA)Ala-D-V-Y-C-5FW-[(2S, 3S)beta-Me-Phe]-hydroxyVal-dAla-COOH] (Ac-[hLeu]YC[Tle]G[Ala(1-CH2CO2H-4-piperidyl)][Ala(piperidin-4-yl)]([PEG4-DOTA])DVYC[Trp(5-F)][X1][Val(3-OH)][dA]-OH; disulfide 3-11)
Kd (2Ig B7-H3): 380 nM
Kd (human 4lg B7-H3): < 1 nM
kidney uptake (% IA/g) (Calu-6 tumors): D (% IA/g > 10 in kidney)
tumor uptake (% IA/g) (Calu-6 tumors): A (0 < % IA/g ≤ 5 in tumor)

Molecule: Ac-[hCha]YC[Tle]G[PipAla]([PEG4′-DOTA])[Ala(4-THP)]DVYC[Trp(5-F)]F[Val(3-OH)][dA]-OH (disulfide 3-11 (inferred)) [Cpd 485]
KD [4]: < 1 nM

Molecule: Ac-[hLeu]YC[Tle]G[Ala(piperidin-4-yl)][Phe(4-COOH)]DVYC[1Nal]FP[dK](DOTA)-NH2 (disulfide 3-11 (inferred)) [Cpd 314]
KD [4]: < 1 nM

Further lines, results first:

KD [3]: 10 to 100 nM
Molecule: Ac-[Nle]YCVGKYDVYCWFT-OH (disulfide 3-11) [Cpd 33]

KD [3]: 10 to 100 nM
Molecule: {DOTA-PEG8′}-[Nle]YCVGKYDVYCWF-NH2 (disulfide 3-11) [Cpd 5]

% cell associated fraction (B7-H3 on Calu-6 cells): 25 to 50%
Molecule: Ac-[hLeu]YCIGK(DOTA)[Ala(piperidin-4-yl)]DVYC[Trp(5-F)]F[Val(3-OH)]-NH2 (disulfide 3-11) [Cpd 203]

% cell associated fraction (B7-H3 on Calu-6 cells): 25 to 50%
Molecule: Ac-[hLeu]YC[Tle]GK([γGlu-DOTA])[4Pal]DVYC[1Nal]FP-NH2 (disulfide 3-11) [Cpd 252]

% cell associated fraction (B7-H3 on Calu-6 cells): 25 to 50%
Molecule: Ac-[hLeu]YCIGK(DOTA)[4Pal]DVYC[Trp(5-F)]F[Val(3-OH)]-NH2 (disulfide 3-11) [Cpd 230]

KD [3]: 10 to 100 nM
B1: Cpd 29 (peptide)
peptide: Ac-[Nle]YCVGKYDVYCWFE[dK](DOTA)-NH2
modifications: disulfide 3-11
SMILES: CCCC[C@H](NC(C)=O)C(=O)N[C@@H](Cc1ccc(O)cc1)C(=O)N[C@H]1CSSC[C@@H](C(=O)N[C@@H](Cc2c[nH]c3ccccc23)C(=O)N[C@@H](Cc2ccccc2)C(=O)N[C@@H](CCC(=O)O)C(=O)N[C@H](CCCCNC(=O)CN2CCN(CC(=O)O)CCN(CC(=O)O)CCN(CC(=O)O)CC2)C(N)=O)NC(=O)[C@H](Cc2ccc(O)cc2)NC(=O)[C@H](C(C)C)NC(=O)[C@H](CC(=O)O)NC(=O)[C@H](Cc2ccc(O)cc2)NC(=O)[C@H](CCCCN)NC(=O)CNC(=O)[C@H](C(C)C)NC1=O

Reference: patent US20250296959A1, “B7-H3 TARGETING PEPTIDES AND CONSTRUCTS THEREOF” (Mariana Oncology Inc., priority 2024, published 2025)
